The supplement of paper PMC6004109

Legend:
Conditions in all cases: temperature: 37 °C
[1] = test system: Candida glabrata ZIM 2344 (RPMI); assay: FICI minimum (fractional inhibitory concentration index, Loewe) (dimensionless); higher = less synergy / more antagonism
Outline: (§1)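 Yeast strains were tested against two-drug combinations by CLSI M27-A3 checkerboard broth microdilution, with clinical isolates in RPMI and C. glabrata ATCC 2001 and a strain derived from it in YPD. Each well held 100 µl of drug dilutions plus 100 µl of an inoculum at 3–5 × 10^3 cells/ml, incubated at 37 °C and read at 48 h as background-subtracted OD600 in at least biological triplicates. The reported figure is the lowest or highest Loewe fractional inhibitory concentration index across the combination surface, summing for each drug its MIC in combination divided by its MIC alone. Depending on the drug, the MIC was taken as MIC50 or MIC90.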

[2] = test system: Candida glabrata ZIM 2365 (RPMI); assay: as above
Outline: as §1

[3] = test system: Candida glabrata ZIM 2369 (RPMI); assay: as above
Outline: as §1

[4] = test system: Candida glabrata ZIM 2382 (RPMI); assay: as above
Outline: as §1

[5] = test system: Candida glabrata ZIM 2385 (RPMI); assay: as above
Outline: as §1

[6] = test system: Candida glabrata ZIM 2389 (RPMI); assay: as above
Outline: as §1

[7] = test system: Saccharomyces cerevisiae ZIM 2247 (RPMI); assay: as above
Outline: as §1

[8] = test system: Saccharomyces cerevisiae ZIM 2255 (RPMI); assay: as above
Outline: as §1

[9] = test system: Saccharomyces cerevisiae ZIM 2260 (RPMI); assay: as above
Outline: as §1

[10] = test system: Saccharomyces cerevisiae ZIM 2269 (RPMI); assay: as above
Outline: as §1

[11] = test system: Saccharomyces cerevisiae ZIM 2558 (RPMI); assay: as above
Outline: as §1

[12] = test system: Saccharomyces cerevisiae ZIM 2566 (RPMI); assay: as above
Outline: as §1

[13] = test system: Candida glabrata ZIM 2344 (RPMI); assay: FICI maximum (fractional inhibitory concentration index, Loewe) (dimensionless); higher = less synergy / more antagonism
Outline: as §1

[14] = test system: Candida glabrata ZIM 2365 (RPMI); assay: as above
Outline: as §1

[15] = test system: Candida glabrata ZIM 2369 (RPMI); assay: as above
Outline: as §1

[16] = test system: Candida glabrata ZIM 2382 (RPMI); assay: as above
Outline: as §1

[17] = test system: Candida glabrata ZIM 2385 (RPMI); assay: as above
Outline: as §1

[18] = test system: Candida glabrata ZIM 2389 (RPMI); assay: as above
Outline: as §1

[19] = test system: Saccharomyces cerevisiae ZIM 2247 (RPMI); assay: as above
Outline: as §1

[20] = test system: Saccharomyces cerevisiae ZIM 2255 (RPMI); assay: as above
Outline: as §1

[21] = test system: Saccharomyces cerevisiae ZIM 2260 (RPMI); assay: as above
Outline: as §1

[22] = test system: Saccharomyces cerevisiae ZIM 2269 (RPMI); assay: as above
Outline: as §1

[23] = test system: Saccharomyces cerevisiae ZIM 2558 (RPMI); assay: as above
Outline: as §1

[24] = test system: Saccharomyces cerevisiae ZIM 2566 (RPMI); assay: as above
Outline: as §1

[25] = test system: Candida glabrata ZIM 2344 (RPMI); assay: Bliss independence sum of statistically significant ΔE (measured minus predicted growth inhibition) over checkerboard surface (fraction (sum of ΔE; 1 = 100%)); higher = more synergy
[26] = test system: Candida glabrata ZIM 2385 (RPMI); assay: as above
[27] = test system: Saccharomyces cerevisiae ZIM 2247 (RPMI); assay: as above
[28] = test system: Saccharomyces cerevisiae ZIM 2269 (RPMI); assay: as above

Question: Which FICI minimum [1] does the source give for `C=CC[C@@H]1/C=C(\C)C[C@H](C)C[C@H](OC)[C@H]2O[C@@](O)(C(=O)C(=O)N3CCCC[C@H]3C(=O)O[C@H](/C(C)=C/[C@@H]3CC[C@@H](O)[C@H](OC)C3)[C@H](C)[C@@H](O)CC1=O)[C@H](C)C[C@@H]2OC` [tacrolimus] + CCC(C)n1ncn(-c2ccc(N3CCN(c4ccc(OCC5COC(Cn6cncn6)(c6ccc(Cl)cc6Cl)O5)cc4)CC3)cc2)c1=O [itraconazole] here?
Answer: 0.125

Question: And the FICI minimum [2]?
Answer: 0.5

Question: What about the FICI minimum [3] of the same molecule?
Answer: 0.25

Question: And the FICI minimum [4]?
Answer: 1

Question: What about the FICI minimum [5] of the same molecule?
Answer: 0.0725

Question: And the FICI minimum [6]?
Answer: 0.126

Question: And the FICI minimum [7]?
Answer: 0.501

Question: And the FICI minimum [8]?
Answer: 0.254

Question: And the FICI minimum [9]?
Answer: 0.251

Question: And the FICI minimum [10]?
Answer: 0.75

Question: What about the FICI minimum [11] of the same molecule?
Answer: 0.25

Question: And the FICI minimum [12]?
Answer: 0.13

Question: And the FICI maximum [13]?
Answer: 0.5

Question: What about the FICI maximum [14] of the same molecule?
Answer: 1.01

Question: What about the FICI maximum [15] of the same molecule?
Answer: 0.5

Question: What about the FICI maximum [16] of the same molecule?
Answer: 1

Question: And the FICI maximum [17]?
Answer: 0.5

Question: What about the FICI maximum [18] of the same molecule?
Answer: 0.126

Question: What about the FICI maximum [19] of the same molecule?
Answer: 0.52

Question: And the FICI maximum [20]?
Answer: 0.502

Question: And the FICI maximum [21]?
Answer: 0.5

Question: What about the FICI maximum [22] of the same molecule?
Answer: 2.5

Question: And the FICI maximum [23]?
Answer: 0.51

Question: And the FICI maximum [24]?
Answer: 1

Question: What about the Bliss independence sum [25] of the same molecule?
Answer: 5.44

Question: And the Bliss independence sum [26]?
Answer: 5.63

Question: And the Bliss independence sum [27]?
Answer: 6.82

Question: What about the Bliss independence sum [28] of the same molecule?
Answer: 4.75

Question: `CC1(C)S[C@@H]2[C@H](NC(=O)[C@H](N)c3ccc(O)cc3)C(=O)N2[C@H]1C(=O)O` [amoxicillin] + C[C@@H]1[C@H](O)[C@@H](C)/C=C/C=C/C=C/C=C/C=C/C=C/C=C/[C@H](O[C@@H]2O[C@H](C)[C@@H](O)[C@H](N)[C@@H]2O)C[C@@H]2O[C@](O)(C[C@@H](O)C[C@@H](O)[C@H](O)CC[C@@H](O)C[C@@H](O)CC(=O)O[C@H]1C)C[C@H](O)[C@H]2C(=O)O [amphotericin B] was tested. Which FICI minimum [1] did it give?
Answer: 0.133

Question: And the FICI minimum [2]?
Answer: 0.258

Question: And the FICI minimum [3]?
Answer: 1.01

Question: What about the FICI minimum [4] of the same molecule?
Answer: 0.508

Question: And the FICI minimum [5]?
Answer: 0.508

Question: What about the FICI minimum [6] of the same molecule?
Answer: 0.508

Question: What about the FICI minimum [7] of the same molecule?
Answer: 1.01

Question: What about the FICI minimum [8] of the same molecule?
Answer: 1.01

Question: What about the FICI minimum [9] of the same molecule?
Answer: 1.01

Question: What about the FICI minimum [10] of the same molecule?
Answer: 1.01

Question: What about the FICI minimum [11] of the same molecule?
Answer: 2.02

Question: What about the FICI minimum [12] of the same molecule?
Answer: 0.562

Question: What about the FICI maximum [13] of the same molecule?
Answer: 1.25

Question: And the FICI maximum [14]?
Answer: 1.25

Question: What about the FICI maximum [15] of the same molecule?
Answer: 1.25

Question: And the FICI maximum [16]?
Answer: 1.25

Question: And the FICI maximum [17]?
Answer: 1.25

Question: And the FICI maximum [18]?
Answer: 1.25

Question: And the FICI maximum [19]?
Answer: 1.25

Question: And the FICI maximum [20]?
Answer: 1.25

Question: What about the FICI maximum [21] of the same molecule?
Answer: 1.25

Question: And the FICI maximum [22]?
Answer: 1.25

Question: What about the FICI maximum [23] of the same molecule?
Answer: 8.78

Question: What about the FICI maximum [24] of the same molecule?
Answer: 4.25

Question: What about the Bliss independence sum [25] of the same molecule?
Answer: 1.9

Question: What about the Bliss independence sum [26] of the same molecule?
Answer: 2.19

Question: What about the Bliss independence sum [27] of the same molecule?
Answer: -2.91

Question: And the Bliss independence sum [28]?
Answer: 2.97
